Compound: CC(C)=CC[C@@H](O)C1=CC(=O)c2c(O)ccc(O)c2C1=O [Shikonin] + CCNC(=O)c1noc(-c2cc(C(C)C)c(O)cc2O)c1-c1ccc(CN2CCOCC2)cc1 [Luminespib] (partner 0.01 µM)
Test: relative viability (nuclei count vs DMSO), 5 days (fraction); higher = more cells survive
Summary of the method: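 Medians of duplicate plates are given as relative viability. That measure is the nuclei count in treated wells divided by the count in vehicle wells. Counts were taken on 4× images of lung cancer cell lines in 1536-well plates, 5 days after pin-tool dosing the day after seeding with one drug alone or a fixed anchor-drug dose plus five library-drug doses (not always all listed) in √10 steps.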

Cell Line | relative viability (first compound 0.01 µM) | relative viability (first compound 0.1 µM) | relative viability (first compound 0.3162 µM) | relative viability (first compound 1 µM)
NCI-H2342 | 0.763 | 0.65 | 0.752 | 0.702
HCC-15 | 0.358 | 0.888 | 0.242 | 0.402
A-427 | 0.743 | 1.21 | 0.814 | 0.88
NCI-H23 | 0.226 | 0.196 | 0.227 | 0.143
NCI-H1734 | 0.173 | 0.199 | 0.216 | 0.131
NCI-H520 | 0.253 | 0.216 | 0.21 | 0.207
RERF-LC-KJ | 1.2 | 1.29 | 1.2 | 1.11
NCI-H1915 | 1 | 0.758 | 0.849 | 0.85
NCI-H1666 | 0.986 | 1.08 | 0.932 | 1.04
SK-MES-1 | 0.969 | 0.677 | 0.833 | 0.698
NCI-H1993 | 1.08 | 0.834 | 0.834 | 0.531
NCI-H838 | 0.369 | 0.237 | 0.317 | 0.258
SK-LU-1 | 0.212 | 0.215 | 0.198 | 0.187
NCI-H1623 | 0.513 | 0.552 | 0.609 | 0.368
LC-2-ad | 0.934 | 1.11 | 1.08 | 1.07
CAL-12T | 0.473 | 0.415 | 0.257 | 0.42
SW 1573 | 0.494 | 0.201 | 0.232 | 0.0929
NCI-H1650 | 0.195 | 0.198 | 0.175 | 0.193
BEN | 0.505 | 0.469 | 0.474 | 0.849
EMC-BAC-2 | 1.25 | 1.44 | 1.3 | 1.24
LU99A | 0.165 | 0.242 | 0.268 | 0.177
ABC-1 | 0.713 | 0.753 | 0.4 | 0.17
NCI-H2170 | 0.8 | 0.703 | 0.632 | 0.562
NCI-H2405 | 0.698 | 0.745 | 0.665 | 0.644

Cell Line | relative viability (first compound 0.01 µM) | relative viability (first compound 0.1 µM) | relative viability (first compound 0.3162 µM) | relative viability (first compound 1 µM)
NCI-H2009 | 1.1 | 1.16 | 1 | 0.876
NCI-H441 | 0.349 | 0.339 | 0.371 | 0.323
PC-3 [JPC-3] | 0.727 | 0.677 | 0.665 | 0.622
HARA | 0.864 | 0.841 | 0.775 | 0.936
NCI-H2126 | 1.01 | 1.05 | 0.966 | 0.891
NCI-H1437 | 1.17 | 1.18 | 1.1 | 1.1
NCI-H1792 | 0.554 | 0.361 | 0.371 | 0.544
ChaGo-K-1 | 0.635 | 0.82 | 0.55 | 0.415
NCI-H727 | 0.412 | 0.462 | 0.233 | 0.329
COR-L23 | 0.848 | 0.675 | 0.767 | 0.357
COR-L 105 | 0.787 | 0.758 | 0.83 | 0.74
LK-2 | 0.195 | 0.185 | 0.211 | 0.17
201T | 0.971 | 1.13 | 1.03 | 1.07
HCC-44 | 0.814 | 1.14 | 1.28 | 1.23
NCI-H650 | 0.678 | 0.822 | 0.79 | 0.61
H3255 | 0.869 | 0.973 | 1.05 | 0.865
NCI-H661 | 0.951 | 1.06 | 0.932 | 0.858
NCI-H2085 | 0.443 | 0.471 | 0.336 | 0.379
NCI-H2347 | 0.573 | 0.477 | 0.471 | 0.526
NCI-H1944 | 0.704 | 0.613 | 0.889 | 0.8
NCI-H1793 | 0.164 | 0.196 | 0.155 | 0.535
NCI-H647 | 0.169 | 0.142 | 0.147 | 0.159
NCI-H596 | 1.14 | 1.22 | 1.16 | 1.13
EKVX | 0.907 | 0.892 | 0.915 | 0.922

Cell Line | relative viability (first compound 0.01 µM) | relative viability (first compound 0.1 µM) | relative viability (first compound 0.3162 µM) | relative viability (first compound 1 µM)
NCI-H358 | 0.467 | 0.369 | 0.246 | 0.334
EPLC-272H | 0.167 | 0.303 | 0.209 | 0.261
NCI-H1563 | 0.575 | 0.465 | 0.542 | 0.453
NCI-H1395 | 0.672 | 0.793 | 0.744 | 0.655
NCI-H2228 | 0.153 | 0.177 | 0.146 | 0.163
LXF-289 | 0.721 | 0.625 | 0.604 | 0.814
NCI-H2023 | 0.969 | 0.851 | 0.982 | 0.59
NCI-H522 | 1.09 | 0.917 | 1.29 | 1.31
NCI-H3122 | 0.0973 | 0.0926 | 0.0903 | 0.0968
NCI-H1755 | 0.428 | 0.439 | 0.576 | 0.378
LOU-NH91 | 0.317 | 0.358 | 0.382 | 0.332
NCI-H322M | 0.942 | 0.855 | 0.82 | 0.847
HCC-827 | 0.518 | 0.887 | 0.638 | 0.64
NCI-H1975 | 0.178 | 0.27 | 0.248 | 0.167
NCI-H1651 | 0.914 | 0.821 | 0.714 | 0.984
NCI-H460 | 0.0384 | 0.034 | 0.0299 | 0.0321
LCLC-103H | 1.01 | 1.17 | 1.06 | 0.993
LCLC-97TM1 | 0.833 | 0.776 | 0.878 | 0.717
PC-14 | 0.115 | 0.12 | 0.135 | 0.151
NCI-H1355 | 0.724 | 0.795 | 0.79 | 0.714
HOP-62 | 0.975 | 0.763 | 0.96 | 0.914
NCI-H2087 | 0.185 | 0.167 | 0.156 | 0.153
SW 900 | 0.192 | 0.173 | 0.207 | 0.155
